Reference: patent US20020137929A1, “1 - (3-heterocyclylphenyl) isothiourea, -isourea, -guanidine and -amidine herbicidal agents” (Intellectual Property Department, BASF Aktiengesellschaft, priority 1998, published 2002)

Key:
CYPIR (Rice Flatsedge) = assay: Postemergence weed control under flooded paddy conditions; type: in vivo, Cyperus iria; settings: postemergence weeds, 3-4 weeks after treatment
How it was run: (§1)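 Injury ratings (0–9 scale covering stand, vigor, malformation, size, chlorosis and overall appearance versus control) were made three to four weeks after treatment. Test material, about 0.0313 to 0.500 kg/ha a.i. in 50/50 v/v aqueous/acetone, was added to flood water 1.5 to 3 cm deep over 3 to 5 cm weeds and 1.5 to 2.5 leaf rice.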

ABUTH (Velvetleaf) [1] = assay: Preemergence herbicidal evaluation; type: in vivo, Abutilon theophrasti; settings: rated 4-5 weeks after treatment
How it was run: (§2)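 Each species is sown separately in potting soil over roughly an inch of soil before any emergence. The soil surface then receives an aqueous acetone spray delivering about 0.0156 to 0.500 kg/ha of compound. After four to five weeks, injury is scored from 0 to 9 relative to a control.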

ABUTH (Velvetleaf) [2] = assay: Postemergence herbicidal evaluation; type: in vivo, Abutilon theophrasti; settings: postemergence
How it was run: (§3)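 ~2-wk seedlings; postemergence spray, 40 psi; vehicle 1:1 acetone:water + 0.5% Tween 20; rate ≈0.0156–0.500 kg/ha; greenhouse hold; scored 4–5 wk after treatment, 0–9 scale vs control; repeat tests averaged.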

[3] = tested on: IPOHE (Morningglory, Ivyleaf); assay: Postemergence herbicidal evaluation; type: in vivo, Ipomoea hederacea; settings: postemergence
How it was run: as §3

[4] = tested on: CHEAL (Lambsquarters, Common); assay: Preemergence herbicidal evaluation; type: in vivo, Chenopodium album; settings: rated 4-5 weeks after treatment
How it was run: as §2

ECHCG (Barnyardgrass) [5] = assay: Preemergence herbicidal evaluation; type: in vivo, Echinochloa crus-galli; settings: rated 4-5 weeks after treatment
How it was run: as §2

[6] = tested on: TRZAWR (Wheat, Winter, cv Riband); assay: Preemergence herbicidal evaluation; type: in vivo, Triticum aestivum; settings: rated 4-5 weeks after treatment
How it was run: as §2

SETVI (Foxtail, Green) = assay: Postemergence herbicidal evaluation; type: in vivo, Setaria viridis; settings: postemergence
How it was run: as §3

CASOB (Sicklepod) = assay: Preemergence herbicidal evaluation; type: in vivo, Cassia obtusifolia; settings: rated 4-5 weeks after treatment
How it was run: as §2

CYPSE (Flatsedge) = assay: Postemergence weed control under flooded paddy conditions; type: in vivo, Cyperus serotinus; settings: postemergence weeds, 3-4 weeks after treatment
How it was run: as §1

ZEAMX (Corn, Field) [7] = assay: Preemergence herbicidal evaluation; type: in vivo, Zea mays; settings: rated 4-5 weeks after treatment
How it was run: as §2

[8] = tested on: IPOHE (Morningglory, Ivyleaf); assay: Preemergence herbicidal evaluation; type: in vivo, Ipomoea hederacea; settings: rated 4-5 weeks after treatment
How it was run: as §2

ORYSAT (Rice, Tebonnet) = assay: Postemergence herbicidal evaluation; type: in vivo, Oryza sativa, (L.) Tebonnet; settings: postemergence
How it was run: as §3

[9] = tested on: CHEAL (Lambsquarters, Common); assay: Postemergence herbicidal evaluation; type: in vivo, Chenopodium album; settings: postemergence
How it was run: as §3

ECHCG (Barnyardgrass) [10] = assay: Postemergence herbicidal evaluation; type: in vivo, Echinochloa crus-galli; settings: postemergence
How it was run: as §3

[11] = tested on: GLXMAW (Soybean, Williams); assay: Preemergence herbicidal evaluation; type: in vivo, Glycine max, (L.) Merr. cv Williams; settings: rated 4-5 weeks after treatment
How it was run: as §2

ZEAMX (Corn, Field) [12] = assay: Postemergence herbicidal evaluation; type: in vivo, Zea mays; settings: postemergence
How it was run: as §3

CCOC(=O)CN1C(=O)C(=Cc2ccc(F)cc2)SC1=Nc1cc(-n2c(=O)cc(C(F)(F)F)n(C)c2=O)c(F)cc1Cl [Compound 21, Ethyl 2-{{2-chloro-5-[3,6-dihydro-3-methyl-2,6-dioxo-4-(trifluoromethyl)-1(2H)-pyrimidinyl]-4-fluorophenyl}imino}-5-(p-fluorobenzylidene)-4-oxo-3-thiazolidineacetate]
0.0: Herbicidal rating CYPIR (CYPIR (Rice Flatsedge); rate 0.1160 kg/ha) | Herbicidal rating CYPIR (CYPIR (Rice Flatsedge); rate 0.2310 kg/ha) | Herbicidal rating CYPIR (CYPIR (Rice Flatsedge); rate 0.4630 kg/ha) | ECHCG preemergence herbicidal rating (ECHCG (Barnyardgrass) [5]; rate 0.2500 kg/ha) | TRZAWR preemergence herbicidal rating ([6]; rate 0.2500 kg/ha) | SETVI herbicidal rating (SETVI (Foxtail, Green); rate 0.0158 kg/ha) | CASOB preemergence herbicidal rating (CASOB (Sicklepod); rate 0.2500 kg/ha) | Herbicidal rating CYPSE (CYPSE (Flatsedge); rate 0.1160 kg/ha) | Herbicidal rating CYPSE (CYPSE (Flatsedge); rate 0.2310 kg/ha) | Herbicidal rating CYPSE (CYPSE (Flatsedge); rate 0.4630 kg/ha) | ZEAMX preemergence herbicidal rating (ZEAMX (Corn, Field) [7]; rate 0.2500 kg/ha) | IPOHE preemergence herbicidal rating ([8]; rate 0.2500 kg/ha) | GLXMAW preemergence herbicidal rating ([11]; rate 0.2500 kg/ha)
2.0: ABUTH preemergence herbicidal rating (ABUTH (Velvetleaf) [1]; rate 0.2500 kg/ha) | IPOHE herbicidal rating ([3]; rate 0.0315 kg/ha) | SETVI herbicidal rating (SETVI (Foxtail, Green); rate 0.0315 kg/ha) | SETVI herbicidal rating (SETVI (Foxtail, Green); rate 0.0630 kg/ha) | ORYSAT herbicidal rating (ORYSAT (Rice, Tebonnet); rate 0.0158 kg/ha) | CHEAL herbicidal rating ([9]; rate 0.0158 kg/ha) | ECHCG herbicidal rating (ECHCG (Barnyardgrass) [10]; rate 0.0315 kg/ha) | ECHCG herbicidal rating (ECHCG (Barnyardgrass) [10]; rate 0.0630 kg/ha)
4.5: ZEAMX herbicidal rating (ZEAMX (Corn, Field) [12]; rate 0.0630 kg/ha)
4.0: ABUTH herbicidal rating (ABUTH (Velvetleaf) [2]; rate 0.0158 kg/ha) | ZEAMX herbicidal rating (ZEAMX (Corn, Field) [12]; rate 0.0158 kg/ha) | ZEAMX herbicidal rating (ZEAMX (Corn, Field) [12]; rate 0.0315 kg/ha)
2.5: ORYSAT herbicidal rating (ORYSAT (Rice, Tebonnet); rate 0.0315 kg/ha) | ORYSAT herbicidal rating (ORYSAT (Rice, Tebonnet); rate 0.0630 kg/ha)
5.0: CHEAL herbicidal rating ([9]; rate 0.0315 kg/ha)
9.0: ABUTH herbicidal rating (ABUTH (Velvetleaf) [2]; rate 0.0630 kg/ha) | IPOHE herbicidal rating ([3]; rate 0.0630 kg/ha) | CHEAL preemergence herbicidal rating ([4]; rate 0.2500 kg/ha)
1.0: IPOHE herbicidal rating ([3]; rate 0.0158 kg/ha) | ECHCG herbicidal rating (ECHCG (Barnyardgrass) [10]; rate 0.0158 kg/ha)
7.0: ABUTH herbicidal rating (ABUTH (Velvetleaf) [2]; rate 0.0315 kg/ha) | CHEAL herbicidal rating ([9]; rate 0.0630 kg/ha)

C=CCN1C(=O)CSC1=Nc1cc(-n2c(=O)cc(C(F)(F)F)n(C)c2=O)c(F)cc1Cl [Compound 27]
5.5: ZEAMX herbicidal rating (ZEAMX (Corn, Field) [12]; rate 0.0315 kg/ha)
4.0: Herbicidal rating CYPIR (CYPIR (Rice Flatsedge); rate 0.0625 kg/ha) | SETVI herbicidal rating (SETVI (Foxtail, Green); rate 0.0315 kg/ha)
4.5: ORYSAT herbicidal rating (ORYSAT (Rice, Tebonnet); rate 0.0630 kg/ha)
5.0: ZEAMX herbicidal rating (ZEAMX (Corn, Field) [12]; rate 0.0158 kg/ha)
2.5: ORYSAT herbicidal rating (ORYSAT (Rice, Tebonnet); rate 0.0315 kg/ha)
7.0: Preemergence herbicidal rating ABUTH (ABUTH (Velvetleaf) [1]; rate 0.0156 kg/ha) | Preemergence herbicidal rating TRZAWR ([6]; rate 0.1250 kg/ha) | Preemergence herbicidal rating ZEAMX (ZEAMX (Corn, Field) [7]; rate 0.0313 kg/ha) | Preemergence herbicidal rating GLXMAW ([11]; rate 0.2500 kg/ha)
0.0: Preemergence herbicidal rating CHEAL ([4]; rate 0.0156 kg/ha) | Preemergence herbicidal rating ECHCG (ECHCG (Barnyardgrass) [5]; rate 0.0156 kg/ha) | Preemergence herbicidal rating TRZAWR ([6]; rate 0.0156 kg/ha) | Preemergence herbicidal rating CASOB (CASOB (Sicklepod); rate 0.0156 kg/ha) | Preemergence herbicidal rating CASOB (CASOB (Sicklepod); rate 0.0313 kg/ha) | Preemergence herbicidal rating CASOB (CASOB (Sicklepod); rate 0.0625 kg/ha) | Preemergence herbicidal rating CASOB (CASOB (Sicklepod); rate 0.1250 kg/ha) | Preemergence herbicidal rating CASOB (CASOB (Sicklepod); rate 0.2500 kg/ha) | Herbicidal rating CYPSE (CYPSE (Flatsedge); rate 0.0313 kg/ha) | Herbicidal rating CYPSE (CYPSE (Flatsedge); rate 0.0625 kg/ha) | Herbicidal rating CYPSE (CYPSE (Flatsedge); rate 0.1250 kg/ha) | Preemergence herbicidal rating ZEAMX (ZEAMX (Corn, Field) [7]; rate 0.0156 kg/ha) | Preemergence herbicidal rating IPOHE ([8]; rate 0.0156 kg/ha) | Preemergence herbicidal rating IPOHE ([8]; rate 0.0313 kg/ha) | Preemergence herbicidal rating GLXMAW ([11]; rate 0.0156 kg/ha) | Preemergence herbicidal rating GLXMAW ([11]; rate 0.0313 kg/ha)
6.0: Herbicidal rating CYPIR (CYPIR (Rice Flatsedge); rate 0.1250 kg/ha) | CHEAL herbicidal rating ([9]; rate 0.0158 kg/ha) | CHEAL herbicidal rating ([9]; rate 0.0315 kg/ha)
9.0: Herbicidal rating CYPIR (CYPIR (Rice Flatsedge); rate 0.2500 kg/ha) | Preemergence herbicidal rating ABUTH (ABUTH (Velvetleaf) [1]; rate 0.0313 kg/ha) | Preemergence herbicidal rating ABUTH (ABUTH (Velvetleaf) [1]; rate 0.0625 kg/ha) | Preemergence herbicidal rating ABUTH (ABUTH (Velvetleaf) [1]; rate 0.1250 kg/ha) | Preemergence herbicidal rating ABUTH (ABUTH (Velvetleaf) [1]; rate 0.2500 kg/ha) | ABUTH herbicidal rating (ABUTH (Velvetleaf) [2]; rate 0.0158 kg/ha) | ABUTH herbicidal rating (ABUTH (Velvetleaf) [2]; rate 0.0315 kg/ha) | ABUTH herbicidal rating (ABUTH (Velvetleaf) [2]; rate 0.0630 kg/ha) | IPOHE herbicidal rating ([3]; rate 0.0158 kg/ha) | IPOHE herbicidal rating ([3]; rate 0.0315 kg/ha) | IPOHE herbicidal rating ([3]; rate 0.0630 kg/ha) | Preemergence herbicidal rating CHEAL ([4]; rate 0.0313 kg/ha) | Preemergence herbicidal rating CHEAL ([4]; rate 0.0625 kg/ha) | Preemergence herbicidal rating CHEAL ([4]; rate 0.1250 kg/ha) | Preemergence herbicidal rating CHEAL ([4]; rate 0.2500 kg/ha) | Preemergence herbicidal rating ECHCG (ECHCG (Barnyardgrass) [5]; rate 0.0625 kg/ha) | Preemergence herbicidal rating ECHCG (ECHCG (Barnyardgrass) [5]; rate 0.1250 kg/ha) | Preemergence herbicidal rating ECHCG (ECHCG (Barnyardgrass) [5]; rate 0.2500 kg/ha) | Preemergence herbicidal rating TRZAWR ([6]; rate 0.2500 kg/ha) | SETVI herbicidal rating (SETVI (Foxtail, Green); rate 0.0630 kg/ha) | Herbicidal rating CYPSE (CYPSE (Flatsedge); rate 0.2500 kg/ha) | Preemergence herbicidal rating ZEAMX (ZEAMX (Corn, Field) [7]; rate 0.1250 kg/ha) | Preemergence herbicidal rating ZEAMX (ZEAMX (Corn, Field) [7]; rate 0.2500 kg/ha) | Preemergence herbicidal rating IPOHE ([8]; rate 0.1250 kg/ha) | Preemergence herbicidal rating IPOHE ([8]; rate 0.2500 kg/ha) | CHEAL herbicidal rating ([9]; rate 0.0630 kg/ha) | Preemergence herbicidal rating GLXMAW ([11]; rate 0.0625 kg/ha) | Preemergence herbicidal rating GLXMAW ([11]; rate 0.1250 kg/ha)
6.5: ZEAMX herbicidal rating (ZEAMX (Corn, Field) [12]; rate 0.0630 kg/ha)
3.0: Herbicidal rating CYPIR (CYPIR (Rice Flatsedge); rate 0.0313 kg/ha) | Preemergence herbicidal rating TRZAWR ([6]; rate 0.0625 kg/ha)
1.0: ECHCG herbicidal rating (ECHCG (Barnyardgrass) [10]; rate 0.0630 kg/ha)
2.0: SETVI herbicidal rating (SETVI (Foxtail, Green); rate 0.0158 kg/ha) | ORYSAT herbicidal rating (ORYSAT (Rice, Tebonnet); rate 0.0158 kg/ha) | ECHCG herbicidal rating (ECHCG (Barnyardgrass) [10]; rate 0.0158 kg/ha) | ECHCG herbicidal rating (ECHCG (Barnyardgrass) [10]; rate 0.0315 kg/ha)
8.0: Preemergence herbicidal rating ECHCG (ECHCG (Barnyardgrass) [5]; rate 0.0313 kg/ha) | Preemergence herbicidal rating ZEAMX (ZEAMX (Corn, Field) [7]; rate 0.0625 kg/ha) | Preemergence herbicidal rating IPOHE ([8]; rate 0.0625 kg/ha)
